The record followed here is patent US11173145B2, “Compounds useful as inhibitors of indoleamine 2,3-dioxygenase and/or tryptophan dioxygenase” (Board of Regents, The University of Texas System, priority 2017, dated 2021).

For orientation: IC50 means the concentration needed to halve the response being measured. A higher IC50 goes with lower potency.

This test has as its target T1, IDO1 (Homo sapiens, UniProt P14902).
T1 construct: endogenous in cells; host or cells: HeLa cells (ATCC), IFNgamma-induced
As to the kind of experiment: IDO1 cell-based assay (HeLa cells, IFNgamma-induced, N-formylkynurenine/L-tryptophan by RFMS). The settings on record: 10 ng/mL IFNgamma, 24 hours. The essentials: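 N-formylkynurenine and tryptophan peak areas in media measured by RFMS (C18, isocratic, d-Trp standard), giving IC50 values by regression. Source: HeLa cells incubated 24 h with IFNgamma (10 ng/mL) plus test compound at 0.5% DMSO; parallel CellTiter-Glo viability read.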

T1 sequence (P14902 whole entry): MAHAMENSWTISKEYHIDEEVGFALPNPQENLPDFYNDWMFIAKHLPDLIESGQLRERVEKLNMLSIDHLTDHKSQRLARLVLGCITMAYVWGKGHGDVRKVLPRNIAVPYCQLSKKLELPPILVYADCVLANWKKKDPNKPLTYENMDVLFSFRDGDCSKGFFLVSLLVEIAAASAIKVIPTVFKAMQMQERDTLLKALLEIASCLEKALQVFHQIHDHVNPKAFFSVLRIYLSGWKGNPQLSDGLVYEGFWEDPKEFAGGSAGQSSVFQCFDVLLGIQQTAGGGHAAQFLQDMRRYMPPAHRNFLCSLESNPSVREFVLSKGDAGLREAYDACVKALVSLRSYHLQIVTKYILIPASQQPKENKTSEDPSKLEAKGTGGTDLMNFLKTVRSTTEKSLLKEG

`CC[C@@H](NC(=O)c1ccc(Cl)cc1)[C@H]1[C@@H]2C[C@@H](n3cc(Br)cn3)C[C@@H]21` [Compound 329, N-((R)-1-((1R,3S,5S,6r)-3-(4-bromo-1H-pyrazol-1-yl)bicyclo[3.1.0]hexan-6-yl)propyl)-4-chlorobenzamide]: the IC50 is below 200 nM. In the case of `CC(NC(=O)c1ccc(Cl)cc1)[C@H]1[C@@H]2C[C@@H](Oc3ncnc4cc(F)ccc34)C[C@@H]21` (stereo partly drawn) [Compound 70, 4-chloro-N-(1-((1R,3s,5S,6r)-3-((7-fluoroquinazolin-4-yl)oxy)bicyclo[3.1.0]hexan-6-yl)ethyl)benzamide] it was below 200 nM.

`CCOC(=O)C(C(=O)OCC)[C@@H]1C[C@@H]2[C@H](C1)[C@H]2[C@@H](CC)NC(=O)c1ccc(Cl)cc1` [Compound 290, diethyl 2-((1R,3S,5S,6r)-6-((R)-1-(4-chlorobenzamido)propyl)bicyclo[3.1.0]hexan-3-yl)malonate] had an IC50 below 200 nM. In the case of `CC(C(=O)Nc1ccc(Cl)cc1)[C@H]1[C@@H]2C[C@@H](Oc3ccnc4ccc(F)cc34)C[C@@H]21` (stereo partly drawn) [Compound 347, N-(4-chlorophenyl)-2-((1R,3s,5S,6r)-3-((6-fluoroquinolin-4-yl)oxy)bicyclo[3.1.0]hexan-6-yl)propanamide] it was below 200 nM. With `CCC(NC(=O)c1ccc(Cl)cc1)[C@H]1[C@@H]2C[C@@H](Oc3cc(C)nc4ccc(F)cc34)C[C@@H]21` (stereo partly drawn) [Compound 20, 4-chloro-N-(1-((1R,3s,5S,6r)-3-((6-fluoro-2-methylquinolin-4-yl)oxy)bicyclo[3.1.0]hexan-6-yl)propyl)benzamide] the figure was below 200 nM; with `O=C(NC(CCO)[C@H]1[C@@H]2C[C@@H](Oc3cnnc4ccccc34)C[C@@H]21)c1ccc(Cl)cc1` (stereo partly drawn) [Compound 139, 4-chloro-N-(1-((1R,3s,5S,6r)-3-(cinnolin-4-yloxy)bicyclo[3.1.0]hexan-6-yl)-3-hydroxypropyl)benzamide], 200 to 2000 nM; with `CCC(NC(=O)c1ccc(Cl)cc1)[C@H]1[C@@H]2C[C@@H](n3cc(C(=O)N4CCCC4)nn3)C[C@@H]21` (stereo partly drawn) [Compound 98, 4-chloro-N-(1-((1R,3s,5S,6r)-3-(4-(pyrrolidine-1-carbonyl)-1H-1,2,3-triazol-1-yl)bicyclo[3.1.0]hexan-6-yl)propyl)benzamide], below 200 nM.

`CC[C@@H](NC(=O)c1ccc(C#N)cc1)[C@H]1[C@@H]2C[C@@H](c3ccnc4ccc(F)cc34)C[C@@H]21` [Compound 277, 4-cyano-N-((R)-1-((1R,3S,5S,6r)-3-(6-fluoroquinolin-4-yl)bicyclo[3.1.0]hexan-6-yl)propyl)benzamide] displayed a concentration for half-maximal inhibition (IC50) below 200 nM. In the case of `CCC(NC(=O)c1cnc(OC)nc1)[C@H]1[C@@H]2C[C@@H](Oc3ncnc4ccc(F)cc34)C[C@@H]21` (stereo partly drawn) [Compound 68, N-(1-((1R,3s,5S,6r)-3-((6-fluoroquinazolin-4-yl)oxy)bicyclo[3.1.0]hexan-6-yl)propyl)-2-methoxypyrimidine-5-carboxamide], the IC50 fell in the range of 2000 to 5000 nM.

`CCC(NC(=O)c1ccc(Cl)cc1)[C@H]1[C@@H]2C[C@@H](Oc3ncnc4cc(Cl)ccc34)C[C@@H]21` (stereo partly drawn) [Compound 21, 4-chloro-N-(1-((1R,3s,5S,6r)-3-((7-chloroquinazolin-4-yl)oxy)bicyclo[3.1.0]hexan-6-yl)propyl)benzamide]: the IC50 was below 200 nM. `O=C(Nc1ccc(Cl)cc1)N[C@H]1[C@@H]2C[C@H](Oc3ccnc4ccc(F)cc34)C[C@@H]21` [Compound 29, 1-(4-chlorophenyl)-3-((1R,3r,5S,6r)-3-((6-fluoroquinolin-4-yl)oxy)bicyclo[3.1.0]hexan-6-yl)urea]: the IC50 fell in the range of 200 to 2000 nM. `CC[C@@H](NC(=O)Nc1ccc(Cl)c(F)c1)[C@H]1[C@@H]2C[C@@H](n3cnc4cc(F)c(F)cc43)C[C@@H]21` [Compound 349, 1-(4-chloro-3-fluorophenyl)-3-((R)-1-((1R,3S,5S,6r)-3-(5,6-difluoro-1H-benzo[d]imidazol-1-yl)bicyclo[3.1.0]hexan-6-yl)propyl)urea] returned an IC50 below 200 nM. Regarding `CC[C@@H](NC(=O)c1ccc(C#N)cc1)[C@H]1[C@@H]2CC(N=[N+]=[N-])C[C@@H]21` (stereo partly drawn) [Compound 283, N-((1R)-1-((1R,5S,6r)-3-azidobicyclo[3.1.0]hexan-6-yl)propyl)-4-cyanobenzamide], the half-maximal inhibitory concentration (IC50) was below 200 nM. Consider `CCC(NC(=O)c1ccc(Cl)cc1)[C@H]1[C@@H]2C[C@@H](NC(=O)c3ccc4ccccc4n3)C[C@@H]21` (stereo partly drawn) [Compound 118, N-((1R,3s,5S,6r)-6-(1-(4-chlorobenzamido)propyl)bicyclo[3.1.0]hexan-3-yl)quinoline-2-carboxamide], for which the IC50 is below 200 nM. `CCC(NC(=O)c1ccc(Cl)cc1)[C@H]1[C@@H]2C[C@@H](n3cc(C(N)=O)nn3)C[C@@H]21` (stereo partly drawn) [Compound 95, 1-((1R,3s,5S,6r)-6-(1-(4-chlorobenzamido)propyl)bicyclo[3.1.0]hexan-3-yl)-1H-1,2,3-triazole-4-carboxamide] displayed a half-inhibitory concentration (IC50) above 5000 nM. The compound `O=C(Cc1ccc(Cl)cc1)NC1[C@H]2CC(Oc3cnnc4ccccc34)C[C@@H]12` (stereo partly drawn) [Compound 79, 2-(4-chlorophenyl)-N-((1R,3s,5S,6r)-3-(cinnolin-4-yloxy)bicyclo[3.1.0]hexan-6-yl)acetamide] came in with an IC50 of 200 to 2000 nM.

`CC[C@@H](NC(=O)NC1COC1)[C@H]1[C@@H]2C[C@@H](n3cnc4cc(F)c(F)cc43)C[C@@H]21` [Compound 353, 1-((R)-1-((1R,3S,5S,6r)-3-(5,6-difluoro-1H-benzo[d]imidazol-1-yl)bicyclo[3.1.0]hexan-6-yl)propyl)-3-(oxetan-3-yl)urea] yielded a concentration for half-maximal inhibition (IC50) above 5000 nM.

The compound `CC[C@@H](NC(=O)c1ccc(Cl)cc1)[C@H]1[C@@H]2C[C@@H](n3cc(C(C)(C)O)nn3)C[C@@H]21` [Compound 142, 4-chloro-N-((S)-1-((1R,3R,5S,6r)-3-(4-(2-hydroxypropan-2-yl)-1H-1,2,3-triazol-1-yl)bicyclo[3.1.0]hexan-6-yl)propyl)benzamide] registered an IC50 above 5000 nM. With `C[C@@H](NC(=O)c1ccc(C#N)cc1)[C@H]1[C@@H]2C[C@H](O)C[C@@H]21` [Compound 296, 4-cyano-N-((R)-1-((1R,3R,5S,6r)-3-hydroxybicyclo[3.1.0]hexan-6-yl)ethyl)benzamide] the figure was above 5000 nM; with `C[C@H](C(=O)Nc1ccc(Cl)cc1)[C@H]1[C@@H]2C[C@@H](n3cnc4cc(F)c(F)cc43)C[C@@H]21` [Compound 299, (S)-N-(4-chlorophenyl)-2-((1R,3R,5S,6r)-3-(5,6-difluoro-1H-benzo[d]imidazol-1-yl)bicyclo[3.1.0]hexan-6-yl)propanamide], below 200 nM; with `CCC(NC(=O)c1ccc(Cl)cc1)[C@H]1[C@@H]2C[C@@H](n3nnc4ccccc43)C[C@@H]21` (stereo partly drawn) [Compound 99, N-(1-((1R,3s,5S,6r)-3-(1H-benzo[d][1,2,3]triazol-1-yl)bicyclo[3.1.0]hexan-6-yl)propyl)-4-chlorobenzamide], below 200 nM. With `Cc1ccc(C(=O)NC[C@@H]2[C@H]3C[C@H](n4cnc5cc(F)c(F)cc54)C[C@@H]23)cn1` [Compound 317, N-(((1R,3s,5S,6r)-3-(5,6-difluoro-1H-benzo[d]imidazol-1-yl)bicyclo[3.1.0]hexan-6-yl)methyl)-6-methylnicotinamide] the figure was 200 to 2000 nM; with `CCC(NC(=O)c1ccc(C#N)cn1)C1C2CC(Oc3cnnc4ccccc34)CC21` [Compound 82, N-(1-((1R,3s,5S,6r)-3-(cinnolin-4-yloxy)bicyclo[3.1.0]hexan-6-yl)propyl)-5-cyanopicolinamide], 200 to 2000 nM; with `CC[C@@H](NC(=O)c1ccc(C#N)cc1)[C@H]1[C@@H]2C[C@@H](n3nnc(C(=O)OC)c3C(=O)OC)C[C@@H]21` [Compound 300, dimethyl 1-((1R,3S,5S,6r)-6-((R)-1-(4-cyanobenzamido)propyl)bicyclo[3.1.0]hexan-3-yl)-1H-1,2,3-triazole-4,5-dicarboxylate], below 200 nM. For the compound `CCC(NC(=O)c1ccc(C#N)cn1)C1C2CC(n3cnc4ccc(F)cc4c3=O)CC21` [Compound 76, 5-cyano-N-(1-((1R,3s,5S,6r)-3-(6-fluoro-4-oxoquinazolin-3(4H)-yl)bicyclo[3.1.0]hexan-6-yl)propyl)picolinamide], the IC50 lay in the range of 200 to 2000 nM. Consider `CC[C@@H](NC(=O)c1ccc(Cl)cc1)[C@H]1[C@@H]2C[C@H](c3ccnc4ccc(F)cc34)C[C@@H]21` [Compound 286, 4-chloro-N-((R)-1-((1R,3R,5S,6r)-3-(6-fluoroquinolin-4-yl)bicyclo[3.1.0]hexan-6-yl)propyl)benzamide], for which the IC50 was below 200 nM. With `CCC(NC(=O)c1ccc(Cl)cc1)[C@H]1[C@@H]2C[C@@H](NC(=O)N3CCNCC3)C[C@@H]21` (stereo partly drawn) [Compound 156, N-((1R,3s,5S,6r)-6-(1-(4-chlorobenzamido)propyl)bicyclo[3.1.0]hexan-3-yl)piperazine-1-carboxamide], the IC50 was above 5000 nM.

In turn, `CC[C@@H](NC(=O)c1ccc(C#N)cc1)[C@H]1[C@@H]2C[C@@H](n3cc(C4CCOC4)nn3)C[C@@H]21` (stereo partly drawn) [Compound 295, 4-cyano-N-((1R)-1-((1R,3S,5S,6r)-3-(4-(tetrahydrofuran-3-yl)-1H-1,2,3-triazol-1-yl)bicyclo[3.1.0]hexan-6-yl)propyl)benzamide] gave an IC50 of 200 to 2000 nM.

In turn, `CCC(NC(=O)c1ccc(Cl)cc1)[C@H]1[C@@H]2C[C@@H](Oc3ccccc3CC(N)=O)C[C@@H]21` (stereo partly drawn) [Compound 45, N-(1-((1R,3s,5S,6r)-3-(2-(2-amino-2-oxoethyl)phenoxy)bicyclo[3.1.0]hexan-6-yl)propyl)-4-chlorobenzamide] returned an IC50 below 200 nM. In turn, `O=C(NC[C@@H]1[C@H]2C[C@H](n3cnc4ccc(F)cc4c3=O)C[C@@H]12)c1ccc(Cl)cc1` [Compound 65, 4-chloro-N-(((1R,3s,5S,6r)-3-(6-fluoro-4-oxoquinazolin-3(4H)-yl)bicyclo[3.1.0]hexan-6-yl)methyl)benzamide] had an IC50 of 200 to 2000 nM.
